Measurements: patent publication US6710048B2, “Pyrazine derivatives as modulators of tyrosine kinases” (Ortho-McNeil Pharmaceutical, Inc., priority 2000, dated 2004)
pIC50: −log10 of the molar value.

Target: CDK4 (cyclin dependent kinase 4) (Homo sapiens, UniProt P11802)
Assay: CDK4 kinase selectivity assay
Type: biochemical
Conditions: Table 4 kinase selectivity; 10 = approximate value; read-out: IC50, Assay 3 CDK4
Method: Assays to test compound inhibition of other kinases were preformed using methods that measure the amount of phosphorylation of a biotinylated peptide substrate. Biotinylated peptide substrates were selected from the literature as appropriate for the enzyme being evaluated. […] Assay conditions vary slightly for each protein kinase, for example, insulin receptor kinase requires 10 mM MnCl2 for activity and Calmodulin-dependent protein kinase requires calmodulin and 2 mM CaCl2. The reaction mixture was dispensed into the wells of a streptavidin coated Flashplate and 1 μl drug stock in 100% DMSO was added to a 100 μl reaction volume resulting in a final concentration of 1% DMSO in the reaction. Enzyme was diluted in 50 mM Tris-HCl pH=8.0, 0.1% BSA and added to each well. The reaction was incubated for one hour at 30° C. in the presence of compound. After one hour the reaction mix was aspirated from the plate and the plate was washed with PBS containing 100 mM EDTA. The plate was read on a scintillation counter to determine ^33P-γ-ATP incorporated into the immobilized peptide. Test compounds were assayed in duplicate at 8 concentrations [100 tM, 10 μM, 1 μM, 100 nM, 10 nM, 1 nM, 100 μM, 10 μM]. A maximum and minimum signal for the assay was determined on each plate. The IC50 was calculated from the dose response curve of the percent inhibition of the maximum signal in the assay according to the formula [max signal−background/test compound signal−background (100)=% inhibition] by graphing the percent inhibition against the log concentration of test compound. Known inhibitor compounds appropriate for the kinase being assayed were also included on each plate.
VEGF-R (vascular endothelial growth factor receptor-2) is a fusion protein containing a polyhistidine tag at the N-terminus followed by amino acids 786-1343 of the rat VEGF-R2 kinase domain (GenBank Accession #U93306). CDK1 (cyclin dependent kinase 1) is isolated from insect cells expressing both the human CDK1 catalytic subunit and its positive regulatory subunit cyclin B (New England Biolabs, Beverly, Mass., Cat. #6020). CDK4 (cyclin dependent kinase 4) contains amino acids 769 to 921 of the mouse […] protein found in the GST-retinoblastoma protein construct (Santa Cruz Biotechnology, Santa Cruz, Calif.; Cat. #SC-4112). Insulin Receptor Kinase consists of residues 941-1313 of the cytoplasmic domain of the beta-subunit of the human insulin receptor (BIOMOL, Plymouth Meeting, Pa., Cat. #SE-195). Protein Kinase A is the catalytic subunit of cAMP dependent protein kinase-A purified from bovine heart (Upstate Biotech, Lake Placid, N.Y., Cat#14-114). PKC (protein kinase-C) is the gamma or beta isoform of the human protein produced in insect cells (BIOMOL, Plymouth Meeting, Pa., Cat. #SE-143). […]

CDK4 (cyclin dependent kinase 4), sequence (P11802 whole entry, species assumed): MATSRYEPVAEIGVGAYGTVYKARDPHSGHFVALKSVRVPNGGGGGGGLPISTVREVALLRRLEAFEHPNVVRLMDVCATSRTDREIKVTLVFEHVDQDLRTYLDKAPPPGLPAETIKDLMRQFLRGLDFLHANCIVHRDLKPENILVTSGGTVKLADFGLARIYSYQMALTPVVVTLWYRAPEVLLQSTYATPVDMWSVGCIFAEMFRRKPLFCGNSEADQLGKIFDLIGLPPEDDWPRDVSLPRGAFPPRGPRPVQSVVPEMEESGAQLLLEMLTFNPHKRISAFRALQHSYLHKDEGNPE
CDK4 (cyclin dependent kinase 4), sequence (P24385 whole entry partner, species assumed): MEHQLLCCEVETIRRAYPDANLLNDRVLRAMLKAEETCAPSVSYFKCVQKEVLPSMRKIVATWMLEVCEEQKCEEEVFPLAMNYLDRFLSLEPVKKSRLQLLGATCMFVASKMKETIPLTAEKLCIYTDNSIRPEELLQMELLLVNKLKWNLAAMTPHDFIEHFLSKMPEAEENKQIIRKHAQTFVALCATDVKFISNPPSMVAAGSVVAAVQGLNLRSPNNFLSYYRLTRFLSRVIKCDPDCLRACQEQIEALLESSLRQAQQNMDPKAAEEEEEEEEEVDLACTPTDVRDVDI

| pIC50 | SMILES |
| --- | --- |
| ~5.00 | CN(C)CCNc1cncc(-c2cncc(Nc3cccc(Cl)c3)n2)c1 [Cmd 33, N′-[5-[6-[(3-chlorophenyl)amino]pyrazinyl]-3-pyridinyl]-N^2,N^2-dimethyl-1,2-ethanediamine] |
| < 5.00 | OCCCCNc1cncc(-c2cncc(Nc3cccc(Cl)c3)n2)c1 [Cmd 32] |
| ~5.00 | OCCCNc1cncc(-c2cncc(Nc3cccc(Cl)c3)n2)c1 [Cmd 4] |

| SMILES | pIC50 |
| --- | --- |
| CN(C)CCCNc1cncc(-c2cncc(Nc3cccc(Cl)c3)n2)c1 [Cmd 35] | ~5.00 |

Target: HER2 (Homo sapiens, UniProt P04626)
Sequence (P04626 23-1255, species assumed): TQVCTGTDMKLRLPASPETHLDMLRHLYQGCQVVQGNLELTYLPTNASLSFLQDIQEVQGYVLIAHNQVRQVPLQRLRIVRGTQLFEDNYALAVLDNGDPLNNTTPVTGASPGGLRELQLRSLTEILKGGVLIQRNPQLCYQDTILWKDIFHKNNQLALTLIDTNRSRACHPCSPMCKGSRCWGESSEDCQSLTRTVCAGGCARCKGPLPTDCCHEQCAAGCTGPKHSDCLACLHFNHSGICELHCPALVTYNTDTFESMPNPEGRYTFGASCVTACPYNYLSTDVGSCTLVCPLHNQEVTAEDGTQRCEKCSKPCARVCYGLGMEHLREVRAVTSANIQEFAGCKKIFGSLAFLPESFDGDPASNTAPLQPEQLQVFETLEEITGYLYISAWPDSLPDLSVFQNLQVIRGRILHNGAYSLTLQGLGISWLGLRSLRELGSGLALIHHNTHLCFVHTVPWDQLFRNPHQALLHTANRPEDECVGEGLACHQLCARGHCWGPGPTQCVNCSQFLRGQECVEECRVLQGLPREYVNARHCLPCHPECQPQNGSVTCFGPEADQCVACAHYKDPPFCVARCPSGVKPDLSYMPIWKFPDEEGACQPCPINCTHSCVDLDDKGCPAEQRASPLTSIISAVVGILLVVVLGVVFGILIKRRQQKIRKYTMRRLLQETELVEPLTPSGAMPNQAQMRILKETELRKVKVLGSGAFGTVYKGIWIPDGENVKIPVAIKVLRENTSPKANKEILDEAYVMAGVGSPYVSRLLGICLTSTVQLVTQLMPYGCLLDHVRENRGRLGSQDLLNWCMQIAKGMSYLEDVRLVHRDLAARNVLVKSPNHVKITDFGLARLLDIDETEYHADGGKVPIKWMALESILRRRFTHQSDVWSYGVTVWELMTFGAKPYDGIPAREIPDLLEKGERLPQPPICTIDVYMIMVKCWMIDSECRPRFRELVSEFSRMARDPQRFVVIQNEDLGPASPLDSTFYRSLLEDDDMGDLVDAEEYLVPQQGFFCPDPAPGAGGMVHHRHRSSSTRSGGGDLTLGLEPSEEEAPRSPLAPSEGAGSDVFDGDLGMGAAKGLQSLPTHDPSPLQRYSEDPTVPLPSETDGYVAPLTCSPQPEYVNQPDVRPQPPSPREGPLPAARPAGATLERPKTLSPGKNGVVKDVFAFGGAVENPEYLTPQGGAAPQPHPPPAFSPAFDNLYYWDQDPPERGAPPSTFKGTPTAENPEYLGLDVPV
Assay: HER2 kinase selectivity assay
Type: biochemical
Conditions: Table 4 kinase selectivity; read-out: IC50, Assay 16 HER2
Method: Assays to test compound inhibition of other kinases were preformed using methods that measure the amount of phosphorylation of a biotinylated peptide substrate. Biotinylated peptide substrates were selected from the literature as appropriate for the enzyme being evaluated. The general procedure used to assay for kinase activity is as follows: A kinase reaction mix was prepared in 50 mM Tris-HCl pH=8, 10 mM MgCl2, 0.1 mM NaVO4, 1 mM DTT, 5-10 μM ATP, 0.25-1 μM biotinylated peptide substrate, 0.2-0.8 μCuries per well ^33P-γ-ATP [2000-3000 Ci/mmol]. Assay conditions vary slightly for each protein kinase, for example, insulin receptor kinase requires 10 mM MnCl2 for activity and Calmodulin-dependent protein kinase requires calmodulin and 2 mM CaCl2. The reaction mixture was dispensed into the wells of a streptavidin coated Flashplate and 1 μl drug stock in 100% DMSO was added to a 100 μl reaction volume resulting in a final concentration of 1% DMSO in the reaction. Enzyme was diluted in 50 mM Tris-HCl pH=8.0, 0.1% BSA and added to each well. The reaction was incubated for one hour at 30° C. in the presence of compound. After one hour the reaction mix was aspirated from the plate and the plate was washed with PBS containing 100 mM EDTA. The plate was read on a scintillation counter to determine ^33P-γ-ATP incorporated into the immobilized peptide. Test compounds were assayed in duplicate at 8 concentrations [100 tM, 10 μM, 1 μM, 100 nM, 10 nM, 1 nM, 100 μM, 10 μM]. A maximum and minimum signal for the assay was determined on each plate. The IC50 was calculated from the dose response curve of the percent inhibition of the maximum signal in the assay according to the formula [max signal−background/test compound signal−background (100)=% inhibition] by graphing the percent inhibition against the log concentration of test compound. Known inhibitor compounds appropriate for the kinase being assayed were also included on each plate.

| pIC50 | SMILES |
| --- | --- |
| 5.65 | Clc1cccc(Nc2cncc(-c3cncc(NCCCn4cncn4)c3)n2)c1 [Cmd 76] |
| < 4.00 | Clc1cccc(Nc2cncc(-c3cncc(NCCCc4ccncc4)c3)n2)c1 [Cmd 71] |
| 5.01 | Clc1cccc(Nc2cncc(-c3cncc(NCCCc4cccnc4)c3)n2)c1 [Cmd 72] |
| 5.14 | Clc1cccc(Nc2cncc(-c3cncc(NCCCN4CCCCC4)c3)n2)c1 [Cmd 73] |
| 5.52 | Clc1cccc(Nc2cncc(-c3cncc(NCCCn4cccn4)c3)n2)c1 [Cmd 75] |
